Measured values from US20200138854A1, “Method of Detecting and Quantifying Bile Acid from Saliva” (Ironwood Pharmaceuticals, Inc., priority 2017, published 2020).
“And” between values parts separate entries of the source, which are not always exact repeats. Identical values can stand only once. Marks after values point to notes of the source that are not given here.

What was measured:
[1] = 1 month
[2] = Frozen (−20° C.) short-term stability in cholestyramine-treated human saliva; details: for % Bias / Concentration, Mean / Concentration: −20° C.; for Concentration: individual values
Experimental: Quality control samples for the evaluation of accuracy and precision and for run acceptance were prepared on the day of sample extraction. QC samples prepared in cholestyramine-treated saliva are to be prepared in small volumes for analysis. Stability for these QC samples would be limited to short-term storage (i.e., 2 days) whereas untreated human saliva would be evaluated for long-term storage.
For stability in cholestyramine-treated human saliva, samples were prepared by spiking cholestyramine-treated human saliva with each analyte at the QC-LLOQ, QC-Low, QC-Mid and QC-High levels. The samples were stored in a −20° C. freezer. After 1 day and 2 days of storage, each sample was extracted in replicates of four for analysis.

[3] = Long-term (1 month at −20° C. and −80° C.) stability in untreated human saliva; details: QC-High, nominal 80.0 ng/mL; for % Bias / Concentration, Mean / Difference from Fresh (%) / Concentration: 1 month; for Concentration: individual values
[4] = 1 Day, QC-High, nominal 80.0 ng/mL
[5] = 1 Day, QC-LLOQ, nominal 0.500 ng/mL
[6] = 1 Day, QC-Mid, nominal 8.00 ng/mL
[7] = 2 Days, QC-High, nominal 80.0 ng/mL
[8] = 2 Days, QC-LLOQ, nominal 0.500 ng/mL
[9] = 2 Days, QC-Mid, nominal 8.00 ng/mL

## CC(CCC(=O)NCC(=O)O)C1CCC2C3CCC4CC(O)CCC4(C)C3CC(O)C12C (stereo not shown) [Glycodeoxycholic Acid, Glycodeoxycholic acid]
[1]
  Long-term stability in untreated human saliva: up to 1 month
  Stability in Untreated Human Saliva: 1 Month
[2]; human
  Short-term stability in cholestyramine-treated human saliva: up to 2 days
  Stability in Treated Human Saliva: 2 days
[2]; [4]
  % Bias: −5.0%
  Concentration, Mean: 76.0 ng/mL
  Concentration: 76.0 ng/mL and 78.9 ng/mL and 73.6 ng/mL and 75.5 ng/mL
[2]; [5]
  % Bias: −1.1%
  Concentration, Mean: 0.495 ng/mL
  Concentration: 0.500 ng/mL and 0.472 ng/mL and 0.488 ng/mL and 0.519 ng/mL
[2]; [6]
  % Bias: −5.0%
  Concentration, Mean: 7.60 ng/mL
  Concentration: 7.43 ng/mL and 8.14 ng/mL and 7.61 ng/mL and 7.21 ng/mL
[2]; [7]
  % Bias: −6.1%
  Concentration, Mean: 75.2 ng/mL
  Concentration: 74.0 ng/mL and 73.3 ng/mL and 75.6 ng/mL and 77.7 ng/mL
[2]; [8]
  % Bias: 15.0%
  Concentration, Mean: 0.575 ng/mL
  Concentration: 0.654^a ng/mL and 0.589 ng/mL and 0.551 ng/mL and 0.599 ng/mL
[2]; [9]
  % Bias: 2.5%
  Concentration, Mean: 8.20 ng/mL
  Concentration: 7.91 ng/mL and 7.87 ng/mL and 8.54 ng/mL and 8.49 ng/mL
[3]; −20° C. Storage
  % Bias: −3.9%
  Concentration, Mean: 76.9 ng/mL
  Difference from Fresh (%): 0.7%
  Concentration: 75.5 ng/mL and 75.9 ng/mL and 79.2 ng/mL
[3]; −80° C. Storage
  % Bias: −0.1%
  Concentration, Mean: 79.9 ng/mL
  Difference from Fresh (%): 4.7%
  Concentration: 81.9 ng/mL and 80.0 ng/mL and 77.8 ng/mL
[3]
  Fresh QCs (Batch 34) Mean at Time Zero: 76.3 ng/mL
